Measured values as given in PubChem BioAssay AID328 (DTP/NCI, 2004).
Values joined by “and” are separate entries in the source; they are usually repeats but may differ in a detail not shown here. Equal values may be shown once. Toxic doses and inconclusive results are not listed.

Test system: BDF1 mice, P388 leukemia ip, median survival T/C
Assay: NCI In Vivo Anticancer Drug Screen. Data for tumor model P388 Leukemia (intraperitoneal) in B6D2F1 (BDF1) mice
Conditions: endpoint: median survival time, higher = longer survival
Outline: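 Vehicle-dosed animals serve as the reference; survival of compound-dosed, tumour-implanted mice is divided by it.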

[1] = dose: 50.0 mg/kg/injection, schedule: Q01DX009 (ip), vehicle: saline with Tween-80
[2] = dose: 100.0 mg/kg/injection, schedule: Q01DX009 (ip), vehicle: saline with Tween-80
[3] = dose: 200.0 mg/kg/injection, schedule: Q01DX009 (ip), vehicle: saline with Tween-80
[4] = dose: 400.0 mg/kg/injection, schedule: Q01DX009 (ip), vehicle: saline with Tween-80
[5] = dose: 25.0 mg/kg/injection, schedule: Q01DX009 (ip), vehicle: saline with Tween-80
[6] = dose: 50.0 mg/kg/injection, schedule: Q01DX009 (ip), vehicle: saline
[7] = dose: 100.0 mg/kg/injection, schedule: Q01DX009 (ip), vehicle: saline
[8] = dose: 12.5 mg/kg/injection, schedule: Q04DX003 (ip), vehicle: saline
[9] = dose: 25.0 mg/kg/injection, schedule: Q04DX003 (ip), vehicle: saline
[10] = dose: 50.0 mg/kg/injection, schedule: Q04DX003 (ip), vehicle: saline with Tween-80
[11] = dose: 100.0 mg/kg/injection, schedule: Q04DX003 (ip), vehicle: saline with Tween-80
[12] = dose: 200.0 mg/kg/injection, schedule: Q04DX003 (ip), vehicle: saline with Tween-80
[13] = dose: 6.25 mg/kg/injection, schedule: Q04DX003 (ip), vehicle: saline

For `CNc1nc2c(N)ncnc2n1C1OC(CO)C(O)C1O` (stereo unspecified), the T/C (dose: 6.25 mg/kg/injection, schedule: Q01DX009 (ip), vehicle: saline with Tween-80) was 105 % of control and the T/C (dose: 12.5 mg/kg/injection, schedule: Q01DX009 (ip), vehicle: saline with Tween-80) was 123 % of control.
`O=C(CCl)Oc1ccc(-c2ccccc2)cc1Br` was tested, and the T/C [1] was 105 % of control, the T/C [2] was 102 % of control and the T/C [3] was 103 % of control. The T/C [4] was 88 % of control.
In the case of `CCCNCCC(O)c1cc(C(F)(F)F)nc2c(C(F)(F)F)cccc12` (stereo unspecified), the T/C [5] is reported as 103 % of control, the T/C [1] is reported as 111 % of control and 124 % of control and the T/C [2] is reported as 111 % of control.
With `O=C(CCCl)N1CCN(C(=O)CCCl)CC1` the T/C (dose: 66.0 mg/kg/injection, schedule: Q01DX009 (ip), vehicle: Klucel (hydroxypropylcellulose) (HPC)) was 104 % of control, the T/C (dose: 100.0 mg/kg/injection, schedule: Q01DX009 (ip), vehicle: Klucel (hydroxypropylcellulose) (HPC)) was 90 % of control and the T/C (dose: 100.0 mg/kg/injection, schedule: Q04DX003 (ip), vehicle: saline sonified) was 116 % of control. The T/C (dose: 150.0 mg/kg/injection, schedule: Q01DX009 (ip), vehicle: Klucel (hydroxypropylcellulose) (HPC)) was 113 % of control, the T/C (dose: 200.0 mg/kg/injection, schedule: Q04DX003 (ip), vehicle: saline sonified) was 108 % of control and the T/C (dose: 400.0 mg/kg/injection, schedule: Q01DX009 (ip), vehicle: Klucel (hydroxypropylcellulose) (HPC)) was 95 % of control. The T/C (dose: 400.0 mg/kg/injection, schedule: Q04DX003 (ip), vehicle: saline sonified) was 120 % of control.
For `Clc1ccc(-n2nnc3cc(Cl)ccc32)c(Cl)c1`, the T/C [2] was 99 % of control.
With `O=C1C=C(NC2CCCCC2)CCC1` the T/C [6] was 96 % of control, the T/C [7] was 99 % of control and the T/C (dose: 200.0 mg/kg/injection, schedule: Q01DX009 (ip), vehicle: saline) was 99 % of control.
With `CC(O)CN1CC(C)N(CC(C)O)CC1C` (stereo unspecified) the T/C [8] was 104 % of control, the T/C [9] was 100 % of control and the T/C (dose: 50.0 mg/kg/injection, schedule: Q04DX003 (ip), vehicle: saline) was 100 % of control.
`CCCCCCCCN(C)N=Nc1ccc(Cl)cc1C(=O)O` was tested, and the T/C [2] was 94 % of control, the T/C [3] was 116 % of control and the T/C [4] was 88 % of control.
`CCOC(=O)c1cnn(C(N)=S)c1N` was tested, and the T/C [1] was 90 % of control, the T/C [10] was 104 % of control and the T/C (dose: 66.0 mg/kg/injection, schedule: Q04DX003 (ip), vehicle: saline with Tween-80) was 104 % of control. For the same molecule, the T/C [11] was 90 % of control and 104 % of control, the T/C (dose: 150.0 mg/kg/injection, schedule: Q04DX003 (ip), vehicle: saline with Tween-80) was 90 % of control and the T/C [12] was 100 % of control.
In the case of `CNC(C)c1ccc(C)cc1` (stereo unspecified), the T/C [13] is reported as 100 % of control, the T/C [8] is reported as 104 % of control and the T/C [9] is reported as 100 % of control.
For `O=C/C=C/c1ccc([N+](=O)[O-])cc1`, the T/C [5] was 104 % of control, the T/C [1] was 108 % of control and the T/C [2] was 91 % of control.
`NC(=O)NC1OC(COC(=O)c2ccccc2)C(OC(=O)c2ccccc2)C1OC(=O)c1ccccc1` (stereo unspecified) was tested, and the T/C [10] was 107 % of control, the T/C [11] was 90 % of control and 96 % of control and the T/C [12] was 93 % of control. The T/C (dose: 400.0 mg/kg/injection, schedule: Q04DX003 (ip), vehicle: saline with Tween-80) was 87 % of control and 90 % of control.
`CCOC(=O)N1N(C(=O)c2ccccc2)C(=O)CC1(C)C` was tested, and the T/C (dose: 200.0 mg/kg/injection, schedule: Q01DX001 (ip), vehicle: other) was 100 % of control and the T/C (dose: 400.0 mg/kg/injection, schedule: Q01DX001 (ip), vehicle: other) was 109 % of control.
With `CCOCCOCCOCCCNCCCN1CC1` the T/C [6] was 187 % of control, the T/C [7] was 95 % of control and the T/C (dose: 100.0 mg/kg/injection, schedule: Q04DX003 (ip), vehicle: saline) was 177 % of control. The T/C (dose: 200.0 mg/kg/injection, schedule: Q04DX003 (ip), vehicle: saline) was 190 % of control.
In the case of `CCCNCc1c2c(O)c3c(O)c(C)c4c(c3c1O)C(=O)C(C)(O/C=C/C(OC)C(C)C(OC(C)=O)C(C)C(O)C(C)C(O)C(C)/C=C/C=C(/C)C(=O)N2)O4` (stereo unspecified), the T/C [1] is reported as 90 % of control and the T/C [2] is reported as 100 % of control.
For `Cc1ncc(/C=C/C(=O)O)c(C=O)c1O`, the T/C [13] was 103 % of control, the T/C [8] was 101 % of control and the T/C [9] was 100 % of control.
`O=C(c1ccc(Cl)cc1)c1cccc[n+]1Cc1ccccc1` was tested, and the T/C (dose: 0.37 mg/kg/injection, schedule: Q01DX009 (ip), vehicle: Klucel (hydroxypropylcellulose) (HPC)) was 100 % of control, the T/C (dose: 18.75 mg/kg/injection, schedule: Q01DX009 (ip), vehicle: Klucel (hydroxypropylcellulose) (HPC)) was 104 % of control and the T/C (dose: 28.12 mg/kg/injection, schedule: Q04DX003 (ip), vehicle: Klucel (hydroxypropylcellulose) (HPC)) was 100 % of control. For the same molecule, the T/C (dose: 37.5 mg/kg/injection, schedule: Q01DX009 (ip), vehicle: Klucel (hydroxypropylcellulose) (HPC)) was 109 % of control, the T/C (dose: 56.25 mg/kg/injection, schedule: Q04DX003 (ip), vehicle: Klucel (hydroxypropylcellulose) (HPC)) was 95 % of control and the T/C (dose: 112.5 mg/kg/injection, schedule: Q04DX003 (ip), vehicle: Klucel (hydroxypropylcellulose) (HPC)) was 100 % of control.
In the case of `CCCCCn1c(C)cc(/C=C\c2ccc3cc(C)ccc3[n+]2C)c1C`, the T/C (dose: 0.22 mg/kg/injection, schedule: Q01DX009 (ip), vehicle: saline) is reported as 105 % of control and 109 % of control, the T/C (dose: 0.33 mg/kg/injection, schedule: Q01DX009 (ip), vehicle: saline) is reported as 95 % of control and 110 % of control and the T/C (dose: 0.5 mg/kg/injection, schedule: Q01DX009 (ip), vehicle: saline) is reported as 109 % of control. The T/C (dose: 0.5 mg/kg/injection, schedule: Q04DX003 (ip), vehicle: saline) was 118 % of control, the T/C (dose: 0.75 mg/kg/injection, schedule: Q01DX009 (ip), vehicle: saline) was 90 % of control and the T/C (dose: 0.88 mg/kg/injection, schedule: Q04DX003 (ip), vehicle: saline) was 108 % of control. For the same molecule, the T/C (dose: 1.0 mg/kg/injection, schedule: Q04DX003 (ip), vehicle: saline) was 120 % of control, the T/C (dose: 1.32 mg/kg/injection, schedule: Q04DX003 (ip), vehicle: saline) was 112 % of control and the T/C (dose: 1.5 mg/kg/injection, schedule: Q01DX009 (ip), vehicle: saline) was 90 % of control. The T/C (dose: 2.0 mg/kg/injection, schedule: Q04DX003 (ip), vehicle: saline) was 104 % of control and 120 % of control and the T/C (dose: 3.0 mg/kg/injection, schedule: Q04DX003 (ip), vehicle: saline) was 116 % of control.
With `C=C1C(=O)OC2/C=C(\CO)C(OC(C)=O)CC(O)/C(C)=C/C(OC(=O)C(C)CC)C12` (stereo unspecified) the T/C (dose: 6.25 mg/kg/injection, schedule: Q01DX009 (ip), vehicle: Klucel (hydroxypropylcellulose) (HPC)) was 110 % of control, the T/C (dose: 12.5 mg/kg/injection, schedule: Q01DX009 (ip), vehicle: Klucel (hydroxypropylcellulose) (HPC)) was 108 % of control and the T/C (dose: 25.0 mg/kg/injection, schedule: Q01DX009 (ip), vehicle: Klucel (hydroxypropylcellulose) (HPC)) was 119 % of control. For the same molecule, the T/C (dose: 50.0 mg/kg/injection, schedule: Q01DX009 (ip), vehicle: Klucel (hydroxypropylcellulose) (HPC)) was 117 % of control.
In the case of `CC1C(=O)OCC2=CCN3CCC(OC(=O)C(C)C1(C)O)C23` (stereo unspecified), the T/C (dose: 10.0 mg/kg/injection, schedule: Q01DX010 (ip), vehicle: saline) is reported as 100 % of control, the T/C (dose: 20.0 mg/kg/injection, schedule: Q01DX010 (ip), vehicle: saline) is reported as 105 % of control and the T/C (dose: 25.0 mg/kg/injection, schedule: Q01DX010 (ip), vehicle: carboxymethylcellulose (CMC)) is reported as 122 % of control. For the same molecule, the T/C (dose: 40.0 mg/kg/injection, schedule: Q01DX010 (ip), vehicle: saline) was 150 % of control, the T/C (dose: 50.0 mg/kg/injection, schedule: Q01DX010 (ip), vehicle: carboxymethylcellulose (CMC)) was 111 % of control and the T/C (dose: 100.0 mg/kg/injection, schedule: Q01DX010 (ip), vehicle: carboxymethylcellulose (CMC)) was 88 % of control.
With `c1ccc([I+]c2ccccc2)cc1` the T/C (dose: 1.0 mg/kg/injection, schedule: Q01DX009 (ip), vehicle: saline) was 100 % of control, the T/C (dose: 2.0 mg/kg/injection, schedule: Q01DX009 (ip), vehicle: saline) was 104 % of control and the T/C (dose: 4.0 mg/kg/injection, schedule: Q01DX009 (ip), vehicle: saline) was 90 % of control. For the same molecule, the T/C (dose: 12.5 mg/kg/injection, schedule: Q04DX003 (ip), vehicle: saline sonified) was 115 % of control, the T/C (dose: 12.5 mg/kg/injection, schedule: Q04DX003 (sc), vehicle: olive oil, sesame oil, peanut oil) was 96 % of control and the T/C (dose: 25.0 mg/kg/injection, schedule: Q04DX003 (sc), vehicle: olive oil, sesame oil, peanut oil) was 100 % of control.
